# Source: ChEMBL document CHEMBL3112489 (Bioorg Med Chem Lett, 2014)
# Legend:
# [1] = Inhibition of Legionella pneumophila carbonic anhydrase 2 preincubated for 15 mins by stopped-flow CO2 hydrase assay
# [2] = Inhibition of Legionella pneumophila carbonic anhydrase 1 preincubated for 15 mins by stopped-flow CO2 hydrase assay
SMILES,Ki [1] [µM],Ki [2] [µM]
O=S(=O)(O)OOS(=O)(=O)O [SODIUM PERSULFATE],570,850
N=C=[Se] [SODIUM ISOSELENOCYANATE],660,980
[Cl-].[Na+] [SODIUM CHLORIDE],810,790
CC(=O)Nc1nnc(S(N)(=O)=O)s1 [ACETAZOLAMIDE],0.036,0.095
CCN(CC)C(=S)S [DITIOCARB SODIUM],2,6
[F-].[Na+] [SODIUM FLUORIDE],770,910
O=P(O)(O)OP(=O)(O)O [SODIUM PYROPHOSPHATE],830,940
F[B-](F)(F)F.[Na+] [SODIUM TETRAFLUOROBORATE],> 200000,> 200000
S=C(S)S [SODIUM CARBONOTRITHIOATE],620,530
N=C=S [SODIUM ISOTHIOCYANATE],880,520
O=[Te](=O)(O)O [SODIUM TELLURATE],290,240
NS(=O)(=O)O [SULFAMATE],13,76
O=[N+]([O-])[O-].[Na+] [SODIUM NITRATE],30100,7600
[O-][Cl+3]([O-])([O-])O [SODIUM PERCHLORATE],> 200000,> 200000
O=[Se](=O)(O)O [SODIUM SELENATE],660,7300
[Br-].[Na+] [SODIUM BROMIDE],8000,650
S [SODIUM HYDROSULFIDE],510,76
[I-].[Na+] [SODIUM IODIDE],59100,320
O=BOB(O)OB(O)OB=O [SODIUM TETRABORATE],550,600
[N-]=[N+]=[N-] [SODIUM AZIDE],450,77
O=S(=O)([O-])[O-].[Na+].[Na+] [SODIUM SULFATE ANHYDROUS],96500,77900
OB(O)c1ccccc1 [PHENYLBORONIC ACID],6,65
NS(N)(=O)=O [SULFAMIDE],–,94
O=S(=O)(O)NS(=O)(=O)O [SODIUM IMINODISULFONATE],590,1170
O=C([O-])[O-].[Na+].[Na+] [SODIUM CARBONATE],4800,4700
O=S([O-])O.[Na+] [SODIUM BISULFITE],7200,6600
N#CO [SODIUM CYANATE],960,660
O=[As](O)(O)c1ccccc1 [PHENYLARSONIC ACID],8,84
O=NO [SODIUM NITRITE],5800,7900
O=C([O-])O.[Na+] [SODIUM BICARBONATE],6600,3500
